Laboratory results reported in PubChem BioAssay (NCI).
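Protocol summary: plate cells (96-well), add compound at 5 concentrations, incubate 48 h, interpolate endpoints linearly. Here, GI50 denotes the concentration required for 50% inhibition of growth. Definition used: TGI = concentration required for complete inhibition of growth.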

How the values were obtained:
Assay in all cases: inhibition of tumour cell growth, NCI panel, 48 h
MCF7 breast = system: MCF7 breast
NCI-H522 lung = system: NCI-H522 lung
IGROV1 ovarian = system: IGROV1 ovarian
OVCAR-5 ovarian = system: OVCAR-5 ovarian
RXF 393 renal = system: RXF 393 renal
HOP-62 NSCLC = system: HOP-62 NSCLC
A498 renal = system: A498 renal
PC-3 prostate = system: PC-3 prostate
MDA-MB-231 breast = system: MDA-MB-231 breast
SK-MEL-5 melanoma = system: SK-MEL-5 melanoma

Structure (SMILES) | GI50 (MCF7 breast) [µM] | TGI (MCF7 breast) [µM] | GI50 (NCI-H522 lung) [µM] | TGI (NCI-H522 lung) [µM] | GI50 (IGROV1 ovarian) [µM] | TGI (IGROV1 ovarian) [µM] | TGI (OVCAR-5 ovarian) [µM] | GI50 (RXF 393 renal) [µM] | TGI (RXF 393 renal) [µM] | GI50 (HOP-62 NSCLC) [µM] | TGI (HOP-62 NSCLC) [µM] | GI50 (A498 renal) [µM] | TGI (A498 renal) [µM] | GI50 (PC-3 prostate) [µM] | TGI (PC-3 prostate) [µM] | GI50 (MDA-MB-231 breast) [µM] | TGI (MDA-MB-231 breast) [µM] | GI50 (SK-MEL-5 melanoma) [µM] | TGI (SK-MEL-5 melanoma) [µM] | GI50 (OVCAR-5 ovarian) [µM]
COC(=O)c1c(-c2ccccc2)csc1NC(=O)c1c(-c2ccccc2)noc1C | 0.6 | > 100 | 1.56 | > 26.3 | 3.44 | > 100 | > 100 | 0.762 | 3.97 | 4.56 | > 100 | > 100 | > 100 | 1.28 | > 100 | 7.66 | > 100 | 0.185 | > 100 | 
Nc1nc(Cl)nc2c1ncn2C1O[C@H](CO)[C@@H](O)[C@@H]1F (some centres not stated) | 0.185 | > 100 |  | > 100 | > 73.5 | > 100 | > 100 | 1.48 | 35.3 | 0.239 | 20.6 | 0.682 | 14.3 | > 24.6 | > 100 |  | > 100 | 0.34 | > 100 | 3
COc1ccc(/C=C(/C(=O)N2CCNCC2)c2cc(OC)c(OC)c(OC)c2)cc1O | 1.34 | > 100 | 2.42 | 9.84 | 6.73 | > 100 | > 100 | 2.95 | > 100 | 5.08 | > 100 | 1.22 | 7.33 | 2.72 | > 100 | 4.41 | > 100 | 4.71 | 56.4 | 6.21
CC(C)(C)c1ccc(-c2nnc(SCc3ccc(Cl)cc3)n2-c2cccc(C(F)(F)F)c2)cc1 |  | > 100 |  | > 100 |  | > 100 | > 96.1 |  | > 100 |  | > 100 |  | > 100 |  | > 100 |  | > 100 |  | > 100 | 
NC(=O)NC(=O)CI | 3.33 | 16.6 | 0.208 | 0.475 | 3.67 | 11.5 | 26.1 | 5.97 | 18.3 | 20.5 | 43.1 | 15 | 31.7 | 12.6 | 26.8 | 6.99 | 19.9 | 12.9 | 26.4 | 11.3
CC1=C(C(=O)Nc2ccc(F)c(Cl)c2)C(c2cccc(Cl)c2)NC(=O)N1 (configuration not stated) | 19.8 | 46 | 15.9 | 33 | 12.4 | 31.3 | 45.7 | 15 | 31.5 | 17.5 | 35 | 1.39 | 15.5 | 17.2 | 46.9 | 11.6 | 25.1 | 13.6 | 26.9 | 23
C=C1C(=O)O[C@H]2[C@H]1CC/C(Cn1cc(CCC)nn1)=C\CC[C@@]1(C)O[C@@H]21 | 3.35 | 15.4 | 3.06 | 10.7 | 4.63 | 20.2 | 29.5 | 4.8 | 16.5 | 14.1 | 27.8 | 21.5 | 36.6 | 14.9 | 29.4 | 4.22 | 16.3 | 15.3 | 29.6 | 14.1
